“Also recorded” adds a separate entry of the source.
Tests used:
[1] = system: iQS strain; experiment: iQS strain fluorescence response to pCA, microwell plate reader; type: cell-based, Escherichia Coli; details: FIG. 1D
Procedure: To design an exemplary iQS system, the two-step pathway which converts pCA into p-coumaroyl-HSL (pC-HSL) was genetically reconstructed through the production of the intermediate molecule p-coumaroyl-CoA (FIG. 1A). The first conversion is catalyzed by the p-coumaric acid-CoA ligase encoded by the 4CL2nt gene from the plant Nicotiana tabacum while the second step is catalyzed by the RpaI synthase. Additionally, superfolder green fluorescent protein (sfGFP) was added to be able to monitor the inducible dynamics. […] Escherichia Coli was chosen as the host chassis for the double plasmid circuit. The methods described in Example 1 are also applicable to Examples 2, 3, and 4.
(§1) The iSLC and SLC strains were both cultured in lysogeny broth (LB) media with 50 μg mL^−1 kanamycin, 34 μg mL^−1 chloramphenicol and 0.2% glucose for strains containing ColE1 origin and p15A origin plasmids in a 37° C. shaking incubator. Plasmid pTD103 RpaR-RpaI-LAA-sfGFP^21, ptD103-CFP were constructed by as described in previous studies (see, e.g., FIG. 11). Both plasmids pAM014 and pAM021 were obtained by inserting the 4CL2nt gene under the constitutive promoter J23106 from the Anderson promoter library. The 4CL2nt gene and the promoter were synthesized with overlapping PCR of long oligonucleotides (IDT). All plasmids were constructed by Gibson assembly followed by transformation into DH5α (Thermofisher) chemically competent E. coli. All plasmids were verified by Sanger sequencing before transformation into E. coli strain MG1655.
(§2) For plate reader experiments, the appropriate strains were seeded from a −80° C. glycerol stock into 3 ml LB with 0.2% glucose and appropriate antibiotics and incubated in a 37° C. shaking incubator. The following day, 2 μL of overnight culture were added to 200 μL fresh media containing appropriate antibiotics in a standard Falcon tissue culture 96-well flat bottom plate. Cells were incubated at 37° C. shaking in a Tecan Infinite M200 Pro. Cells were grown for about 12 hours. The optical density at 600 nm absorbance was measured every 10 minutes.

[2] = system: lux QS system; experiment: crosstalk of p-coumaric acid with the lux QS system, growth curves (plate reader); type: cell-based, E. coli; details: range of pCA concentrations; FIG. 9
Procedure: as §2
Experiments were performed to investigate the orthogonal properties of the iQS circuit by co-culturing the iSLC with a non-inducible SLC strain based on the lux QS system, one of the most commonly used and well understood QS systems in synthetic biology (FIG. 4A). […] Next, a previously described microfluidic chip was used (FIG. 2D and FIG. 7) to co-culture the iSLC and SLC strains (starting at 1:1 ratio) under a gradient of inducer concentrations. […] Without inducer, the quiescent iSLC strain was able to displace the SLC strain due to an advantage in population growth rate. At intermediate concentrations (15 nM), stable co-culture of both strains were maintained with independently sustained oscillations for more than 40 hours.

[3] = system: wild type E. Coli strain; experiment: wild type E. Coli growth curves in a range of p-coumaric acid concentrations (plate reader); type: cell-based; details: within the characterized concentration range; FIG. 1E
Procedure: as §2

[4] = system: iSLC strain; experiment: iSLC kill switch induction in microfluidic traps; type: cell-based, E. coli; details: induction with 500 nM pCA after saturation of traps; 406 traps
Excerpt: (§3) The microscopy and microfluidics techniques used are similar to those previously reported. The microfluidic devices were constructed from PDMS (polydimethylsiloxane), which was molded and baked on a silicon wafer with micronscale features formed by crosslinked photoresist. Once the PDMS hardened, it was peeled off, and individual devices were cut out. In order to connect fluid lines to the device, holes where punched in correspondence of the inlets and outlets of the device. Afterwards, the devices were bonded onto glass slides using plasma activation. Before each experiment, the devices were left for 30 minutes in a vacuum chamber. Meanwhile, 1 mL of overnight cell culture was spun down by centrifugation and re-suspended in 10 μL of fresh media with appropriate antibiotics. […] At 4× magnification fluorescence exposure times were 2 seconds at 30% intensity for both gfp and cfp while at 10× magnification they were 200 us at 30% intensity for both GFP and CFP. […]
(§4) Fluorescence intensity profiles were obtained by analyzing frames from the fluorescent channels. The mean fluorescence values were calculated by drawing a rectangle surrounding each trap individually and extracting the z-axis profile on ImageJ. Fluorescence values shown in FIG. 2 were normalized by dividing all data by a constant factor. […]

[5] = system: iSLC strain; experiment: cells survival assay (CFU count) of iSLC strain in liquid culture; type: cell-based, E. coli; details: 3 mL culture tubes, eight hours; 300 nM, 500 nM, 1 μM; independent of inducer concentration; FIG. 3D
Procedure: Cell viability assays to test the efficacy of iQS as a kill switch were done by measuring colony forming units (CFUs), following a protocol found in the literature. Cells were grown under survival conditions in LB with 0.2% glucose which inhibits the LuxI promoter thanks to the presence of a binding site for the CAP-CAMP activating complex. Following overnight growth, they were transferred into four cultures of fresh LB medium with 0.2% glucose, 300 nM p-coumaric acid, 500 nM p-coumaric acid and 1 μM p-coumaric acid, respectively. Samples were collected every 2 hours and serially diluted in PBS over a 7-log range and spotted (2 μL) onto LB agar plates with 0.2% glucose. The equations used arc: CFU/ml=(number of colonies)×(dilution factor)/0.002 mL, survival ratio (log 10)=log (CFU/ml with glucose)/(CFU/ml with p-coumaric acid).
Experiments were performed to investigate whether inducer concentrations could be modulated during culture to show the culture can switch between states of constant growth (circuit quiescence), synchronized oscillations in population density (cyclic cargo release) and inducible population death (kill switch). To confirm this principle, experiments were performed to test the ability to drive the population dynamics from state one (population growth) to state three (population death) through pCA induction (FIG. 3A). […]

[6] = system: iSLC and SLC strains co-culture; experiment: co-culture of iSLC and SLC strains under a gradient of inducer concentrations (microfluidics); type: cell-based, E. coli
Excerpt: as §3, with “antibiotics. After taking the device out of the vacuum chamber, a single droplet of resuspended cells was positioned in correspondence of the outlet opening. Similarly, droplets of sterile fresh media were placed in correspondence of the inlets openings. In all cases, 0.075% Tween20 was added to the medium to prevent cells from sticking to the PDMS walls. After all chip features were wetted, the fluids lines were plugged in and the height of the inlet was raised 10 to 40 cm above the device. The outlet syringe was instead placed at the same height of the device. For co-culturing experiments in FIG. 4, cells were cultured individually overnight and eventually spun down and re-suspended together (1:1 ratio) allowing for a single droplet to be loaded on the device.” for “antibiotics.”
as §4

[7] = system: iSLC strain; experiment: iSLC strain population dynamics in microfluidic inducer gradient device; type: cell-based, E. coli
Procedure: as §1
The microscopy and microfluidics techniques used are similar to those previously reported. The microfluidic devices were constructed from PDMS (polydimethylsiloxane), which was molded and baked on a silicon wafer with micronscale features formed by crosslinked photoresist. Once the PDMS hardened, it was peeled off, and individual devices were cut out. In order to connect fluid lines to the device, holes where punched in correspondence of the inlets and outlets of the device. Afterwards, the devices were bonded onto glass slides using plasma activation. […]

O=C(O)/C=C/c1ccc(O)cc1 [pCA, p-coumaric acid]
iQS circuit behavior at intermediate inducer levels ([1]; 1 nM and 10 nM pCA): population-dependent switch-like behavior | iQS circuit behavior at high inducer concentrations ([1]; 100 nM to 10 μM pCA): linear relationship between fluorescence expression and population density | optical density threshold of steep increase in fluorescence signal ([1]; intermediate levels (1 nM and 10 nM) pCA): around 0.3 | crosstalk with lux QS system / growth curves [2]: absence of crosstalk; also recorded: growth curves are unaffected | toxicity to wild type E. Coli (growth curves) [3]: not toxic | microfluidic traps with cell death after synchronized lysis event [4]: more than 97% | cell survival (CFU) [5]: several order of magnitude decrease | duration of stable co-culture with independently sustained oscillations ([6]; 15 nM, starting 1:1 ratio): more than 40 hours | co-culture outcome at high pCA concentration ([6]; 110 nM, starting 1:1 ratio): death of all iSLC cells | co-culture outcome at inducer values higher than 340 nM ([6]; higher than 340 nM, FIG. 10): iSLC death and SLC takeover | fraction of all microfluidics traps able to survive ([7]; high pCA concentrations 110 nM to 1 μM, universal cell lysis): < 3% | average period of sustained synchronized oscillations ([7]; intermediate inducer concentration 15 nM): approximately 200 minutes
